Values belong to the molecule of their own block, whether it stands above or below them.
Assays:
Bel-7402 = experiment: Cytotoxicity against human Bel-7402 cells assessed as inhibition of cell growth incubated for 48 hrs by MTT assay; type: functional, cell-based; details: Bel-7402, 48 h
[1] = Cytotoxicity against human QSG7701 cells assessed as inhibition of cell growth incubated for 48 hrs by MTT assay; type: toxicity, cell-based
MCF7 = experiment: Antiproliferative activity against human MCF7 cells assessed as inhibition of cell proliferation incubated for 48 hrs by MTT assay; type: functional, cell-based; details: MCF7, 48 h
HeLa = experiment: Antiproliferative activity against human HeLa cells assessed as inhibition of cell proliferation incubated for 48 hrs by MTT assay; type: functional, cell-based
SMMC-7721 = experiment: Antiproliferative activity against human SMMC-7721 cells assessed as inhibition of cell proliferation incubated for 48 hrs by MTT assay; type: functional, cell-based; details: SMMC-7721, 48 h
Candida albicans = experiment: Antifungal activity against Candida albicans MTCC 227 assessed as zone of inhibition at 100 ug/ml by well diffusion assay; type: functional; details: read-out: IZ
Saccharomyces cerevisiae = experiment: Antifungal activity against Saccharomyces cerevisiae MTCC 36 assessed as zone of inhibition at 100 ug/ml by well diffusion assay; type: functional; details: read-out: IZ
Escherichia coli = experiment: Antibacterial activity against Escherichia coli MTCC 443 assessed as zone of inhibition at 50 ug/ml by well diffusion assay; type: functional; details: read-out: IZ
Rhizopus arrhizus = experiment: Antifungal activity against Rhizopus oryzae MTCC 262 assessed as zone of inhibition at 100 ug/ml by well diffusion assay; type: functional; details: read-out: IZ
Pseudomonas aeruginosa = experiment: Antibacterial activity against Pseudomonas aeruginosa MTCC 741 assessed as zone of inhibition at 50 ug/ml by well diffusion assay; type: functional; details: read-out: IZ
[2] = system: Staphylococcus epidermidis; experiment: Antibacterial activity against Staphylococcus epidermidis MTCC 435 assessed as zone of inhibition at 50 ug/ml by well diffusion assay; type: functional; details: read-out: IZ
Aspergillus niger = experiment: Antifungal activity against Aspergillus niger MTCC 282 assessed as zone of inhibition at 100 ug/ml by well diffusion assay; type: functional; details: read-out: IZ
Staphylococcus aureus = experiment: Antibacterial activity against Staphylococcus aureus MTCC 96 assessed as zone of inhibition at 50 ug/ml by well diffusion assay; type: functional; details: read-out: IZ
HCT-15 = experiment: Cytotoxicity against human HCT-15 cells assessed as inhibition of cell growth incubated for 24 hrs by sulforhodamine B assay; type: functional, cell-based; details: HCT-15, 24 h

SMILES: NCCCCNCCCCNCCCN1C(=O)c2cccc3cccc(c23)C1=O
- IC50 (Bel-7402): 1060 nM
- IC50 at 48 h [1]: > 50000 nM

SMILES: NCCCCNCCCCNCCCCN1C(=O)c2cccc3cccc(c23)C1=O
- IC50 (Bel-7402): 1060 nM
- IC50 at 48 h [1]: > 50000 nM

- IC50 (MCF7): 300 nM
- IC50 (HeLa): 300 nM
- IC50 (SMMC-7721): 300 nM
SMILES: O=C1c2cccc3cc(-n4ccnn4)cc(c23)C(=O)N1CCO

SMILES: NCCCCNCCCCNCCCCN1C(=O)c2cccc3c(Cl)ccc(c23)C1=O
- IC50 (Bel-7402): 1060 nM
- IC50 at 48 h [1]: > 50000 nM

- IC50 (MCF7): 300 nM
- IC50 (HeLa): 300 nM
- IC50 (SMMC-7721): 300 nM
SMILES: CCN(CC)CCN1C(=O)c2cccc3cc(-n4ccnn4)cc(c23)C1=O

- IC50 (MCF7): 300 nM
- IC50 (HeLa): 300 nM
- IC50 (SMMC-7721): 300 nM
SMILES: CCN(CC)CCN1C(=O)c2cccc3cc(-n4cc(-c5ccccc5)nn4)cc(c23)C1=O

- IC50 (MCF7): 300 nM
- IC50 (HeLa): 300 nM
- IC50 (SMMC-7721): 300 nM
SMILES: CN(C)CCN1C(=O)c2cccc3cc(-n4cc(-c5ccccc5)nn4)cc(c23)C1=O

SMILES: CCC1=C(C(=O)OC)C(CN2C(=O)c3cccc4cccc(c34)C2=O)NC(=O)N1 (configuration not stated)
- zone of inhibition at 100 µg/mL (Candida albicans): 12 mm
- zone of inhibition at 100 µg/mL (Saccharomyces cerevisiae): 12 mm
- zone of inhibition at 50 µg/mL (Escherichia coli): 12 mm
- zone of inhibition at 100 µg/mL (Rhizopus arrhizus): 12 mm
- zone of inhibition at 50 µg/mL (Pseudomonas aeruginosa): 12 mm
- zone of inhibition at 50 µg/mL [2]: 15 mm
- zone of inhibition at 100 µg/mL (Aspergillus niger): 12 mm
- zone of inhibition at 50 µg/mL (Staphylococcus aureus): 15 mm

- IC50 (MCF7): 300 nM
- IC50 (HeLa): 300 nM
- IC50 (SMMC-7721): 300 nM
SMILES: O=C1c2cccc3cc(-n4cc(-c5ccccc5)nn4)cc(c23)C(=O)N1CCN1CCNCC1

SMILES: O=C1c2cccc3cccc(c23)C(=O)N1CCCNCc1cccs1
- IC50 (HCT-15): 2440 nM

SMILES: O=C1c2cccc3cccc(c23)C(=O)N1CCCCn1cc(-c2ccccc2)nn1
- IC50 (HCT-15): 2440 nM

SMILES: O=C1c2cccc3cccc(c23)C(=O)N1CCn1cc(-c2ccccc2)nn1
- IC50 (HCT-15): 2440 nM

SMILES: O=C1c2cccc3cccc(c23)C(=O)N1CCCn1cc(-c2ccccc2)nn1
- IC50 (HCT-15): 2440 nM

- IC50 (MCF7): 300 nM
- IC50 (HeLa): 300 nM
- IC50 (SMMC-7721): 300 nM
SMILES: O=C1c2cccc3cc(-n4ccnn4)cc(c23)C(=O)N1CCN1CCNCC1

SMILES: COC(=O)C1=C(C)NC(=O)NC1CN1C(=O)c2cccc3cccc(c23)C1=O (configuration not stated)
- zone of inhibition at 100 µg/mL (Candida albicans): 12 mm
- zone of inhibition at 100 µg/mL (Saccharomyces cerevisiae): 12 mm
- zone of inhibition at 50 µg/mL (Escherichia coli): 12 mm
- zone of inhibition at 100 µg/mL (Rhizopus arrhizus): 12 mm
- zone of inhibition at 50 µg/mL (Pseudomonas aeruginosa): 12 mm
- zone of inhibition at 50 µg/mL [2]: 15 mm
- zone of inhibition at 100 µg/mL (Aspergillus niger): 12 mm
- zone of inhibition at 50 µg/mL (Staphylococcus aureus): 15 mm

SMILES: CCOC(=O)C1=C(CC)NC(=S)NC1CN1C(=O)c2cccc3cccc(c23)C1=O (configuration not stated)
- zone of inhibition at 100 µg/mL (Candida albicans): 12 mm
- zone of inhibition at 100 µg/mL (Saccharomyces cerevisiae): 12 mm
- zone of inhibition at 50 µg/mL (Escherichia coli): 12 mm
- zone of inhibition at 100 µg/mL (Rhizopus arrhizus): 12 mm
- zone of inhibition at 50 µg/mL (Pseudomonas aeruginosa): 12 mm
- zone of inhibition at 50 µg/mL [2]: 15 mm
- zone of inhibition at 100 µg/mL (Aspergillus niger): 12 mm
- zone of inhibition at 50 µg/mL (Staphylococcus aureus): 15 mm

SMILES: CN[C@@H]1[C@H](O[C@H]2[C@H](O[C@H]3[C@H](O)[C@@H](O)[C@H](N=C(N)N)[C@@H](O)[C@@H]3N=C(N)N)O[C@@H](C)[C@]2(O)C=O)O[C@@H](CO)[C@H](O)[C@H]1O [STREPTOMYCIN]
- zone of inhibition at 50 µg/mL (Escherichia coli): 29 mm
- zone of inhibition at 50 µg/mL (Pseudomonas aeruginosa): 24 mm
- zone of inhibition at 50 µg/mL [2]: 23 mm
- zone of inhibition at 50 µg/mL (Staphylococcus aureus): 21 mm

SMILES: NCCCNCCCCNCCCN1C(=O)c2cccc3c(Br)ccc(c23)C1=O
- IC50 (Bel-7402): 1060 nM
- IC50 at 48 h [1]: > 50000 nM

SMILES: CCC1=C(C(=O)Oc2ccccc2)C(CN2C(=O)c3cccc4cccc(c34)C2=O)NC(=O)N1 (configuration not stated)
- zone of inhibition at 100 µg/mL (Candida albicans): 12 mm
- zone of inhibition at 100 µg/mL (Saccharomyces cerevisiae): 12 mm
- zone of inhibition at 50 µg/mL (Escherichia coli): 12 mm
- zone of inhibition at 100 µg/mL (Rhizopus arrhizus): 12 mm
- zone of inhibition at 50 µg/mL (Pseudomonas aeruginosa): 12 mm
- zone of inhibition at 50 µg/mL [2]: 15 mm
- zone of inhibition at 100 µg/mL (Aspergillus niger): 12 mm
- zone of inhibition at 50 µg/mL (Staphylococcus aureus): 15 mm

- IC50 (MCF7): 300 nM
- IC50 (HeLa): 300 nM
- IC50 (SMMC-7721): 300 nM
SMILES: O=C1c2cccc3cc(-n4cc(-c5ccccc5)nn4)cc(c23)C(=O)N1CCO

SMILES: NCCCCN1C(=O)c2cccc3cccc(c23)C1=O
- IC50 (HCT-15): 2440 nM

SMILES: NCCCNCCCCNCCCCN1C(=O)c2cccc3cccc(c23)C1=O
- IC50 (Bel-7402): 1060 nM
- IC50 at 48 h [1]: > 50000 nM

Source: ChEMBL document CHEMBL5244223, “l,8-Naphthalimide based DNA intercalators and anticancer agents. A systematic review from 2007 to 2017” (Eur J Med Chem, 2018)
